Data reported in patent publication US7417053B2, “Pyrazolo[1,5-a]pyridine derivatives or pharmaceutically acceptable salts thereof” (Teijin Pharma Limited, priority 2005, dated 2008).
Counter-ions that a name gives are not always drawn.

Target: recombinant human MAPKAP-K2 (Homo sapiens, UniProt P49137)
Test: Inhibitory activity against MAPKAP-K2 enzyme (33P-ATP peptide phosphorylation)
Assay type: biochemical
Settings: recombinant human MAPKAP-K2, ATP 20 μmol/L solution, room temperature 30 min; read-out: Activity Strength (MAPKAP-K2 IC50 value)
Method: General Measurement Method for Determining the Inhibitory Activity Against MAPKAP-K2 enzyme
(Preparation of Solutions of Compounds)
Each compound was dissolved in DMSO to prepare a solution with a concentration of 20 mmol/L and this solution was stored at −20° C. This stock solution was diluted with DMSO successively to prepare solutions with 200-fold concentrations of a necessary range. These solutions were further diluted with water at a ratio of 1:20 to prepare solutions with 10-fold concentrations of a necessary range. Each of these solutions (5 μL) was used for each reaction in 50 μL-scale. Through the dilution series of all compounds, the final DMSO concentration was kept at 0.5%. Conventional tests for the compounds were carried out at a final concentration range from 100 μmol/L to 0.03 μmol/L. but in some cases, tests were carried out at lower concentrations, depending on activity.
(Measurements of MAPKAP-K2 Enzyme Activities)
To a 5% DMSO aqueous solution (5 μL) of a test compound, a solution (25 μL) containing a peptide substrate [peptide substrate 60 μmol/L, ATP 20 μmol/L, Tris buffer 60 mmol/L (pH 7.5), EGTA 0.2 mmol/L, β-mercaptoethanol 0.2%, magnesium acetate 20 mmol/L, [γ-33P]ATP 0.1 μCi (specific radioactivity ca. 110 TBq/mmol)] was added. The reaction was initiated by adding a solution (20 μL) containing MAPKAP-K2 enzyme [recombinant human MAPKAP-K2 10 mU, Tris buffer […] (pH 7.5), EGTA 0.1 mmol/L, β-mercaptoethanol 0.1%, BSA 0.1%]. After the reaction was carried out at room temperature for 30 min, 200 mmol/L phosphoric acid (50 μL) was added to quench the reaction, and 90 μL of the reaction mixture was adsorbed on a multiscreen PH plate (Millipore). The plate was washed with 100 mmol/L phosphoric acid. After the plate was dried, 30 μL of MicroScint-O (Perkin-Elmer) was added, and the count per minute was measured on a scintillation counter to determine the inhibitory activity. The peptide substrate was Lys-Lys-Leu-Asn-Arg-Thr-Leu-Ser-Val-Ala.
• % Reference=(X−B)/(Tot−B)×100 • % Inhibition=100−% Reference • X represents count per minute of the well with a test compound applied. • B represents count per minute of the well without the enzyme. • Tot represents count per minute of the well with only DMSO solvent and no test compound applied. (Calculation of MAPKAP-K2 Inhibitory Activity) • IC50 value represents a concentration of compound at which 50% inhibition is observed.

Chain of recombinant human MAPKAP-K2 (P49137 whole entry): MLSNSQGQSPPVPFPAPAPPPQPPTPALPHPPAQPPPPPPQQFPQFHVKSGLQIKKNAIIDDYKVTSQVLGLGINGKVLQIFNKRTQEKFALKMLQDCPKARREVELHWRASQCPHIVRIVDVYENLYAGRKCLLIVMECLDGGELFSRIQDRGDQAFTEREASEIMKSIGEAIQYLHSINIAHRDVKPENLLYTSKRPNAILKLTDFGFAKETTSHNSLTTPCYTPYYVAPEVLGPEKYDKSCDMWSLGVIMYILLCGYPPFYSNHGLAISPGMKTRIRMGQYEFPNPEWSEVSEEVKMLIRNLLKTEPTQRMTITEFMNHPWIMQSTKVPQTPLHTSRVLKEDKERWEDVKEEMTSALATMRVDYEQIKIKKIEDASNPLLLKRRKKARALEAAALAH

Compound	IC50
CCOc1ccc(Nc2c(C)c(NCCC3CCCCN3)c(C#N)c3ccnn23)cc1 (stereo not drawn) [Compound 113, 7-[(4-Ethoxyphenyl)amino]-6-methyl-5-[(2-(2-piperidyl)ethyl)amino]pyrazolo[1,5-a]pyridine-4-carbonitrile trifluoroacetate salt]	10 to 100 µM
CCOc1ccc(Nc2c(C)c(NCC3CCCN3)c(C#N)c3ccnn23)cc1 (stereo not drawn) [Compound 114, 7-[(4-Ethoxyphenyl)amino]-6-methyl-5-[(pyrrolidin-2-ylmethyl)amino]pyrazolo[1,5-a]pyridine-4-carbonitrile trifluoroacetate salt]	1 to 10 µM
CCOc1ccc(Nc2c(C)c(N[C@H]3CC[C@H](NCc4ccccc4)CC3)c(C#N)c3ccnn23)cc1 [Compound 115, 7-[(4-Ethoxyphenyl)amino]-6-methyl-5-[trans-{4-(benzylamino)cyclohexyl]amino}pyrazolo[1,5-a]pyridine-4-carbonitrile trifluoroacetate salt]	0.2 to 1 µM
CCOc1ccc(Nc2c(C)c(N[C@H]3CC[C@H](NCCCc4ccccc4)CC3)c(C#N)c3ccnn23)cc1 [Compound 116, 7-[(4-Ethoxyphenyl)amino]-6-methyl-5-({trans-4-[(3-phenylpropyl)amino]cyclohexyl}amino)pyrazolo[1,5-a]pyridine-4-carbonitrile trifluoroacetate salt]	0.2 to 1 µM
Cc1c(N[C@H]2CCCNC2)c(C#N)c2ccnn2c1Nc1ccc2ncsc2c1 [Compound 117, 5-[((3S)-3-Piperidyl)amino]-7-(benzothiazol-6-ylamino)-6-methylpyrazolo[1,5-a]pyridine-4-carbonitrile trifluoroacetate salt]	< 0.2 µM
CCc1nc2ccc(Nc3c(C)c(N[C@H]4CCCNC4)c(C#N)c4ccnn34)cc2s1 [Compound 118, 5-[((3S)-3-Piperidyl)amino]-7-[(2-ethylbenzothiazol-6-yl)amino]-6-methylpyrazolo[1,5-a]pyridine-4-carbonitrile trifluoroacetate salt]	< 0.2 µM
CCOc1ccc(Nc2c(C)c(NCC3CCCCN3)c(C#N)c3ccnn23)cc1 (stereo not drawn) [Compound 119, 7-[(4-Ethoxyphenyl)amino]-6-methyl-5-[(2-piperidylmethyl)amino]pylrazolo[1,5-a]pyridine-4-carbonitrile trifluoroacetate salt]	1 to 10 µM
CCOc1ccc(Nc2c(C)c(NCCCNC3CCCCC3)c(C#N)c3ccnn23)cc1 [Compound 120, 5-{[3-(Cyclohexylamino)propyl]amino}-7-[(4-ethoxyphenyl)amino]-6-methylpyrazolo[1,5-a]pyridine-4-carbonitrile trifluoroacetate salt]	1 to 10 µM
CCCc1c(N[C@H]2CCCNC2)c(C#N)c2ccnn2c1Nc1ccc(OCC)cc1 [Compound 121, 5-[(3S)-3-Piperidylamino]-7-(4-ethoxyphenylamino)-6-propylpyrazolo[1,5-a]pyridine-4-carbonitrile]	< 0.2 µM
CCCc1c(N[C@H]2CC[C@H](N)CC2)c(C#N)c2ccnn2c1Nc1ccc(OCC)cc1 [Compound 122, 5-(trans-4-Aminocyclohexylamino)-7-(4-ethoxyphenylamino)-6-propylpyrazolo[1,5-a]pyridine-4-carbonitrile]	< 0.2 µM
CCOc1ccc(Nc2c(C(C)C)c(N[C@H]3CCCNC3)c(C#N)c3ccnn23)cc1 [Compound 123, 5-[(3S)-3-Piperidylamino]-7-(4-ethoxyphenylamino)-6-(methylethyl)pyrazolo[1,5-a]pyridine-4-carbonitrile]	< 0.2 µM

Results, then the compound that gave them:

IC50	Compound
< 0.2 µM	CCOc1ccc(Nc2c(C(C)C)c(N[C@H]3CC[C@H](N)CC3)c(C#N)c3ccnn23)cc1 [Compound 124, 5-(trans-4-Aminocyclohexylamino)-7-(4-ethoxyphenylamino)-6-(methylethyl)pyrazolo[1,5-a]pyridine-4-carbonitrile]
0.2 to 1 µM	CCOc1ccc(Nc2c(C)c(N[C@H]3CC[C@H](NCCc4ccccc4)CC3)c(C#N)c3ccnn23)cc1 [Compound 125, 7-[(4-Ethoxyphenyl)amino]-6-methyl-5-(trans-{4-[(2-phenylethyl)amino]cyclohexyl}amino]pyrazolo[1,5-a]pyridine-4-carbonitrile trifluoroacetate salt]
0.2 to 1 µM	CCOc1ccc(Nc2c(C)c(N[C@H]3CC[C@H](NCC4CCCCC4)CC3)c(C#N)c3ccnn23)cc1 [Compound 126, 5-({4-[(Cyclohexylmethyl)amino]cyclohexyl}amino)-7-[(4-ethoxyphenyl)amino]-6-methylpyrazolo[1,5-a]pyridine-4-carbonitrile trifluoroacetate salt]
1 to 10 µM	CCOc1ccc(Nc2c(C)c(NC3CNCc4ccccc43)c(C#N)c3ccnn23)cc1 (stereo not drawn) [Compound 127, 7-[(4-Ethoxyphenyl)amino]-6-methyl-5-[4-(1,2,3,4-tetrahydroisoquinolyl)amino]pyrazolo[1,5-a]pyridine-4-carbonitrile trifluoroacetate salt]
1 to 10 µM	CCOc1ccc(Nc2c(C)c(NCC3CCCNC3)c(C#N)c3ccnn23)cc1 (stereo not drawn) [Compound 128, 7-[(4-Ethoxyphenyl)amino]-6-methyl-5-[(3-piperidylmethyl)amino]pyrazolo[1,5-a]pyridine-4-carbonitrile trifluoroacetate salt]
1 to 10 µM	CCOc1ccc(Nc2c(C)c(NCCC3CCCN3)c(C#N)c3ccnn23)cc1 (stereo not drawn) [Compound 129, 7-[1(4-Ethoxyphenyl)amino]-6-methyl-5-[2-(pyrrolidin-2-ylethyl)amino]pyrazolo[1,5-a]pyridine-4-carbonitrile trifluoroacetate salt]
0.2 to 1 µM	CCOc1ccc(Nc2c(C3CC3)c(N[C@H]3CCCNC3)c(C#N)c3ccnn23)cc1 [Compound 130, 5-[(3S)-3-Piperidylamino]-7-(4-ethoxyphenylamino)-6-cyclopropylpyrazolo[1,5-a]pyridine-4-carbonitrile]
< 0.2 µM	CCOc1ccc(Nc2c(C3CC3)c(N[C@H]3CC[C@H](N)CC3)c(C#N)c3ccnn23)cc1 [Compound 131, 5-(trans-4-Amionocyclohexylamino)-7-(4-ethoxyphenylamino)-6-cyclopropylpyrazolo[1,5-a]pyridine-4-carbonitrile]
10 to 100 µM	CCOc1ccc(Nc2c(C)c(NCCCCCCN)c(C#N)c3ccnn23)cc1 [Compound 132, 5-[(6-Amionohexyl)amino]-7-[(4-ethoxyphenyl)amino]-6-methylpyrazolo[1,5-a]pyridine-4-carbonitrile trifluoroacetate salt]
10 to 100 µM	CCOc1ccc(Nc2c(C)c(NCCC3CCCN3C)c(C#N)c3ccnn23)cc1 (stereo not drawn) [Compound 133, 7-[(4-Ethoxyphenyl)amino]-6-methyl-5-{[2-(1-methylpyrrolidin-2-yl)ethyl]amino}pyrazolo[1,5-a]pyridine-4-carbonitrile trifluoroacetate salt]
